Source: paper PMC11396751, “Design, Synthesis, and Anticancer Activity of Novel Enmein-Type Diterpenoid Derivatives Targeting the PI3K/Akt/mTOR Signaling Pathway” (Molecules, 2024)

Assays:
MCF-7 cells = test: MTT anti-proliferative assay, MCF-7; type: cell-based; conditions: Homo sapiens, MCF7, 48 h, means ± SD of three experiments
Procedure: (§1) A series of novel enmein-type diterpenoid derivatives, 5a–m, were synthesized by introducing a side chain containing a carbamate moiety at the C-6 position of compound 4. The anticancer activities of 5a–m were tested against three human cancer cell lines and one human normal cell line by MTT assay.
(§2) Human non-small cell lung cancer cell lines (A549), human liver cancer cell lines (HepG2), human breast cancer cell lines (MCF-7), and human normal cell lines (L-02) were purchased from the cell bank of the Chinese Academy of Sciences. All cells were placed in RPMI-1640 medium (added 10% fetal bovine serum, […]) and cultured in an aseptic environment with 5% CO2 at 37 °C.
(§3) All derivatives were evaluated for their anti-proliferative activities against three cancer cell lines and one normal cell line by MTT assay. The cells in the logarithmic growth phase were inoculated into 96-well plates (3 × 10^3 cells/well) and incubated for 48 h in a sterile environment with 5% CO2 at 37 °C to make them attach via cell adhesion; then, the cells were co-incubated with target compounds for 48 h. After that, MTT solution (10 µL/well) was added to the cell culture medium to continue incubation for 4 h, following which the medium was replaced with DMSO (150 µL/well). The absorbance values at 490 nm were determined using an enzyme meter (Safire 2, Tecan, Männedorf, Switzerland) and further converted to half-inhibitory concentration values of these compounds.

L-02 cells = test: MTT anti-proliferative assay, normal L-02 cells; type: cell-based; conditions: means ± SD of three experiments
Procedure: as §1, §2, §3

A549 cells = test: MTT anti-proliferative assay, A549; type: cell-based, human; conditions: for IC50: Homo sapiens, A549, MTT, 48 h, means ± SD of three experiments
Procedure: as §1, §2, §3

HepG2 cells = test: MTT anti-proliferative assay, HepG2; type: cell-based, human; conditions: for IC50: Homo sapiens, HepG2, MTT, 48 h, means ± SD of three experiments
Procedure: as §1, §2, §3

Row | Compound | IC50 (MCF-7 cells) [µM] | IC50 (L-02 cells; Homo sapiens, L02, 48 h) [µM] | IC50 (A549 cells) [µM] | IC50 (HepG2 cells) [µM] | IC50 (L-02 cells; L02, human normal cells, 48 h) [µM] | fold better than parental compound 4 (A549 IC50) (A549 cells; A549 cells) [fold] | anticancer activity in words, HepG2 (HepG2 cells; HepG2 cells)
1 | C=C1C(=O)C23C(=O)OC45CCC(C)(C)C6C(OC(=O)N7CCCCC7)OCC64C2CCC1C3O5 (single isomer, unassigned; ent-6) [Compound 5g, ent-6β,14α-Dihydroxy-(1,7–1,14)-epoxy-7,15-dioxo-6,20-hemiketal-6,7-seco-16-kaurene-6β-yl piperidine-1-carboxylate] | 22.8 ± 2.13 | > 50 | 15.3 ± 2.4 | 21.1 ± 2.5 | – | – | –
2 | C=C1C(=O)C23C(=O)OC45CCC(C)(C)C6C(OC(=O)CCC(=O)NCc7ccccc7)OCC64C2CCC1C3O5 (single isomer, unassigned; ent-6) [Compound 7a, ent-6β,14α-Dihydroxy-(1,7–1,14)-epoxy-7,15-dioxo-6,20-hemiketal-6,7-seco-16-kaurene-6β-yl 4-(benzylamino)-4-oxobutanoate] | 10.8 ± 1.65 | – | 10.2 ± 1.1 | 13.8 ± 2.19 | > 50 | – | –
3 | C=C1C(=O)C23C(=O)OC45CCC(C)(C)C6C(OC(=O)N(CCCl)CCCl)OCC64C2CCC1C3O5 (single isomer, unassigned; ent-6) [Compound 5d, ent-6β,14α-Dihydroxy-(1,7–1,14)-epoxy-7,15-dioxo-6,20-hemiketal-6,7-seco-16-kaurene-6β-yl bis(2-chloroethyl) carbamate] | 15.6 ± 1.61 | – | 8.76 ± 1.56 | 11 ± 1.45 | 30.4 ± 3.44 | – | –
4 | C=C1C(=O)C23C(=O)OC45CCC(C)(C)C6C(OC(=O)CCN7C(=O)c8ccccc8C7=O)OCC64C2CCC1C3O5 (single isomer, unassigned; ent-6) [Compound 5m, ent-6β,14α-Dihydroxy-(1,7–1,14)-epoxy-7,15-dioxo-6,20-hemiketal-6,7-seco-16-kaurene-6β-yl 3-(1,3-dioxoisoindolin-2-yl) propanoate] | 12.3 ± 1.11 | 32.5 ± 1.62 | 6.85 ± 1.68 | 10.9 ± 1.25 | – | 3.48 | –
5 | C=C1C(=O)C23C(=O)OC45CCC(C)(C)C6C(OC(=O)N(C)C)OCC64C2CCC1C3O5 (single isomer, unassigned; ent-6) [Compound 5a, ent-6β,14α-Dihydroxy-(1,7–1,14)-epoxy-7,15-dioxo-6,20-hemiketal-6,7-seco-16-kaurene-6β-yl dimethylcarbamate] | 30.7 ± 1.16 | > 50 | 14.7 ± 1.54 | 17.1 ± 1.39 | – | – | –
6 | CC(=O)O[C@H]1C(=O)[C@@]2(C)[C@H]([C@H](OC(=O)c3ccccc3)[C@]3(O)C[C@H](OC(=O)[C@H](O)[C@@H](NC(=O)c4ccccc4)c4ccccc4)C(C)=C1C3(C)C)[C@]1(OC(C)=O)CO[C@@H]1C[C@@H]2O [Taxol, reference compound] | 5.15 ± 0.8 | 8.31 ± 1.82 | 4.21 ± 0.73 | 6.6 ± 1.61 | – | – | –
7 | C=C1C(=O)C23C(=O)OC45CCC(C)(C)C6C(OC(=O)N7c8ccccc8Sc8ccccc87)OCC64C2CCC1C3O5 (single isomer, unassigned; ent-6) [Compound 5k, ent-6β,14α-Dihydroxy-(1,7–1,14)-epoxy-7,15-dioxo-6,20-hemiketal-6,7-seco-16-kaurene-6β-yl 10H-phenothiazine-10-carboxylate] | 26.3 ± 2.3 | > 50 | 17.2 ± 1.43 | 25.7 ± 2.16 | – | – | –
8 | C=C1C(=O)C23C(=O)OC45CCC(C)(C)C6C(OC(=O)N7CCCC7)OCC64C2CCC1C3O5 (single isomer, unassigned; ent-6) [Compound 5f, ent-6β,14α-Dihydroxy-(1,7–1,14)-epoxy-7,15-dioxo-6,20-hemiketal-6,7-seco-16-kaurene-6β-yl pyrrolidine-1-carboxylate] | 20.7 ± 1.2 | 45.9 ± 2.3 | 13.4 ± 2.19 | 18.3 ± 1.36 | – | – | –
9 | C=C1C(=O)C23C(=O)OC45CCC(C)(C)C6C(OC(=O)N7CCCCCC7)OCC64C2CCC1C3O5 (single isomer, unassigned; ent-6) [Compound 5h, ent-6β,14α-Dihydroxy-(1,7–1,14)-epoxy-7,15-dioxo-6,20-hemiketal-6,7-seco-16-kaurene-6β-yl azepane-1-carboxylate] | 24 ± 2.55 | > 50 | 18.4 ± 1.13 | 20.2 ± 1.33 | – | – | –
10 | C=C1C(=O)C23C(=O)OC45CCC(C)(C)C6C(OC(=O)N(c7ccccc7)c7ccccc7)OCC64C2CCC1C3O5 (single isomer, unassigned; ent-6) [Compound 5j, ent-6β,14α-Dihydroxy-(1,7–1,14)-epoxy-7,15-dioxo-6,20-hemiketal-6,7-seco-16-kaurene-6β-yl diphenylcarbamate] | 32.8 ± 2.95 | > 50 | 23.3 ± 2.25 | 34.1 ± 3.52 | – | – | –
11 | C=C1C(=O)C23C(=O)OC45CCC(C)(C)C6C(O)OCC64C2CCC1C3O5 (single isomer, unassigned; ent-6) [Compound 4, Ent-6β,14α-Dihydroxy-(1,7–1,14)-epoxy-7,15-dioxo-6,20-hemiketal-6,7-seco-16-kaurene] | 25.8 ± 1.14 | 30.2 ± 1.58 | 23.8 ± 1.86 | 27.4 ± 0.83 | – | – | –
12 | C=C1C(=O)C23C(=O)OC45CCC(C)(C)C6C(OC(=O)N(C)CC)OCC64C2CCC1C3O5 (single isomer, unassigned; ent-6) [Compound 5c, ent-6β,14α-Dihydroxy-(1,7–1,14)-epoxy-7,15-dioxo-6,20-hemiketal-6,7-seco-16-kaurene-6β-yl ethyl(methyl)carbamate] | 21.9 ± 2.72 | > 50 | 20.2 ± 1.46 | 22.5 ± 3.42 | – | – | –
13 | C=C1C(=O)C23C(=O)OC45CCC(C)(C)C6C(OC(=O)CCC(=O)NCc7ccc(C(C)(C)C)cc7)OCC64C2CCC1C3O5 (single isomer, unassigned; ent-6) [Compound 7d, ent-6β,14α-Dihydroxy-(1,7–1,14)-epoxy-7,15-dioxo-6,20-hemiketal-6,7-seco-16-kaurene-6β-yl 4-((4-(tert-butyl)benz-yl)amino)-4-oxobutanoate] | 7.64 ± 2.52 | 35.7 ± 2.66 | 6.41 ± 1.9 | 11.5 ± 1.58 | – | – | –
14 | C=C1C(=O)C23C(=O)OC45CCC(C)(C)C6C(OC(=O)CCn7cccc7)OCC64C2CCC1C3O5 (single isomer, unassigned; ent-6) [Compound 5l, ent-6β,14α-Dihydroxy-(1,7–1,14)-epoxy-7,15-dioxo-6,20-hemiketal-6,7-seco-16-kaurene-6β-yl 3-(1H-pyrrol-1-yl) propanoate] | 15.9 ± 1.9 | > 50 | 8.3 ± 2.55 | 11.2 ± 1.82 | – | – | –
15 | C=C1C(=O)C23C(=O)OC45CCC(C)(C)C6C(OC(=O)CCC(=O)NCc7ccc(F)cc7)OCC64C2CCC1C3O5 (single isomer, unassigned; ent-6) [Compound 7e, ent-6β,14α-Dihydroxy-(1,7–1,14)-epoxy-7,15-dioxo-6,20-hemiketal-6,7-seco-16-kaurene-6β-yl 4-((4-fluorobenzyl)amino)-4-oxobutanoate] | 9.85 ± 1.53 | > 50 | 7.12 ± 1.52 | 11.6 ± 1.34 | – | – | –
16 | C=C1C(=O)C23C(=O)OC45CCC(C)(C)C6C(OC(=O)CCC(=O)NCc7ccc(OC)cc7)OCC64C2CCC1C3O5 (single isomer, unassigned; ent-6) [Compound 7c, ent-6β,14α-Dihydroxy-(1,7–1,14)-epoxy-7,15-dioxo-6,20-hemiketal-6,7-seco-16-kaurene-6β-yl 4-((4-meth0xybenzyl)amino)-4-oxobutanoate] | 8.35 ± 1.96 | 34.4 ± 4.37 | 8.37 ± 1.53 | 12.8 ± 1.73 | – | – | –
17 | C=C1C(=O)C23C(=O)OC45CCC(C)(C)C6C(OC(=O)CCC(=O)NCc7ccc(Cl)cc7)OCC64C2CCC1C3O5 (single isomer, unassigned; ent-6) [Compound 7f, ent-6β,14α-Dihydroxy-(1,7–1,14)-epoxy-7,15-dioxo-6,20-hemiketal-6,7-seco-16-kaurene-6β-yl 4-((4-chlorobenzyl)amino)-4-oxobutanoate] | 8.2 ± 1.21 | > 50 | 7.38 ± 0.96 | 8.61 ± 1.14 | – | – | low micro-molar-level anticancer activities
18 | C=C1C(=O)C23C(=O)OC45CCC(C)(C)C6C(OC(=O)N7CCOCC7)OCC64C2CCC1C3O5 (single isomer, unassigned; ent-6) [Compound 5i, ent-6β,14α-Dihydroxy-(1,7–1,14)-epoxy-7,15-dioxo-6,20-hemiketal-6,7-seco-16-kaurene-6β-yl bmorpholine-4-carboxylate] | 25.1 ± 3.34 | 38.1 ± 2.82 | 14.4 ± 1.42 | 23.7 ± 3.4 | – | – | –
19 | C=C1C(=O)C23C(=O)OC45CCC(C)(C)C6C(OC(=O)N(CC)CC)OCC64C2CCC1C3O5 (single isomer, unassigned; ent-6) [Compound 5b, ent-6β,14α-Dihydroxy-(1,7–1,14)-epoxy-7,15-dioxo-6,20-hemiketal-6,7-seco-16-kaurene-6β-yl diethylcarbamate] | 17.6 ± 2.4 | > 50 | 15.8 ± 1.5 | 15.2 ± 1.58 | – | – | –
